ChEMBL document CHEMBL4257221, “Peptides comprising non-natural amino acids and methods of making and using the same” (2016)
Numbered stars: 1 amine (or outer) side, 2 acyl side, 3 side chain; on linkers, the order of the positions; unused ones are H or OH. Square brackets hold non-standard residues; d marks the D form. Peptide text beside a SMILES is read from it. ξ: configuration not given here. X1 = O=C([C@H]1CCC[C@@H]1N[*:1])[*:2]; X2 = O=C([C@H]1CNC[C@@H]1N[*:1])[*:2]; ξβ3hN = NC(=O)CC(N)CC(=O)O; ξβ3hL = CC(C)CC(N)CC(=O)O; ξβ3hK = NCCCCC(N)CC(=O)O; βAla = NCCC(=O)O

Columns and labels:
[1] = molecular target: T1, Vasoactive intestinal polypeptide receptor 1 (Homo sapiens, UniProt P32241); assay: Agonist activity at human VIPR1 expressed in CHOK1 cells assessed as intracellular cAMP accumulation after 60 mins by PathHunter assay; type: functional, cell-based
T1 sequence (P32241 whole entry): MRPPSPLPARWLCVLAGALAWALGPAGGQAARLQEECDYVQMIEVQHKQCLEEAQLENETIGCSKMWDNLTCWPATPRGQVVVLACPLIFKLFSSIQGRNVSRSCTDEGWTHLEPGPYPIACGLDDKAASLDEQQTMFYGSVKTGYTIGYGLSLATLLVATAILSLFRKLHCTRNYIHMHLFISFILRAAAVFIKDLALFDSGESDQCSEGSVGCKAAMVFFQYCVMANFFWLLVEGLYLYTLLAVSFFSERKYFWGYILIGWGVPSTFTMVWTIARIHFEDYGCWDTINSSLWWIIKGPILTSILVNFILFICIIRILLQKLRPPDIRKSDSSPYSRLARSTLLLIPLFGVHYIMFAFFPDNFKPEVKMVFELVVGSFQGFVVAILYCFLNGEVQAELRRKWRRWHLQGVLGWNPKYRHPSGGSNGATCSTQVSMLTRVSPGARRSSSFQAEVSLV

[2] = molecular target: T2, Vasoactive intestinal polypeptide receptor 2 (Homo sapiens, UniProt P41587); assay: Agonist activity at human VIPR2 expressed in CHOK1 cells assessed as intracellular cAMP accumulation after 60 mins by PathHunter assay; type: functional, cell-based
T2 sequence (P41587 whole entry): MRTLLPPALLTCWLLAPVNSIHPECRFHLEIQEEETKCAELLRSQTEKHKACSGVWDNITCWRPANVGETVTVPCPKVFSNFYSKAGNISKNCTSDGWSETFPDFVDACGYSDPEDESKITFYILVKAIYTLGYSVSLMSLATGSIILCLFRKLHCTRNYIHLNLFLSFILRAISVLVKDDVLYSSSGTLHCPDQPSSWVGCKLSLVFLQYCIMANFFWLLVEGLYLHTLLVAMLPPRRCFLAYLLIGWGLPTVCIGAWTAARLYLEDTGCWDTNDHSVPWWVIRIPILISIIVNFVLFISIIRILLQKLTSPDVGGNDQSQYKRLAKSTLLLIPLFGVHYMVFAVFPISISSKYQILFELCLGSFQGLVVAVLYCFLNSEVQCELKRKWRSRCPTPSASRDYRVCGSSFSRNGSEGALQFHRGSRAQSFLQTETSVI

| EC50 [1] [nM] | EC50 [2] [nM] | Compound |
| --- | --- | --- |
| 912 | 609 | CC[C@H](C)[C@H](NC(=O)[C@H](C)NC(=O)[C@H](CC(N)=O)NC(=O)CC(CC(C)C)NC(=O)[C@H](Cc1ccc(O)cc1)NC(=O)[C@H](CCCCN)NC(=O)[C@H](CCCCN)NC(=O)CC(NC(=O)[C@H](C)NC(=O)[C@H](CC(C)C)NC(=O)[C@H](CCC(N)=O)NC(=O)CC(CCCCN)NC(=O)[C@H](CCCNC(=N)N)NC(=O)[C@H](CC(C)C)NC(=O)[C@H](CCCNC(=N)N)NC(=O)CC(NC(=O)[C@H](Cc1ccc(O)cc1)NC(=O)[C@H](CC(N)=O)NC(=O)[C@H](CC(=O)O)NC(=O)CC(NC(=O)[C@H](Cc1ccccc1)NC(=O)[C@@H](NC(=O)[C@H](C)NC(=O)CC(CC(=O)O)NC(=O)[C@@H](Cc1ccccc1)NC(=O)[C@@H](N)Cc1cnc[nH]1)C(C)C)C(C)O)C(C)O)C(C)C)C(=O)NC(CC(=O)N[C@@H](CC(N)=O)C(=O)O)CC(C)C (stereo partly drawn) |
| > 1000 | 989 | CC[C@H](C)[C@H](NC(=O)[C@H](C)NC(=O)[C@H](CC(N)=O)NC(=O)CC(CC(C)C)NC(=O)[C@H](Cc1ccc(O)cc1)NC(=O)[C@H](CCCCN)NC(=O)[C@H](CCCCN)NC(=O)CC(NC(=O)[C@H](C)NC(=O)[C@H](CC(C)C)NC(=O)[C@H](CCC(N)=O)NC(=O)CC(CCCCN)NC(=O)[C@H](CCCNC(=N)N)NC(=O)[C@H](CC(C)C)NC(=O)[C@H](CCCNC(=N)N)NC(=O)CC(NC(=O)[C@H](Cc1ccc(O)cc1)NC(=O)CC(CC(N)=O)NC(=O)[C@H](CC(=O)O)NC(=O)[C@@H](NC(=O)[C@H](Cc1ccccc1)NC(=O)CC(NC(=O)[C@H](C)NC(=O)[C@H](CC(=O)O)NC(=O)[C@@H](Cc1ccccc1)NC(=O)[C@@H](N)Cc1cnc[nH]1)C(C)C)[C@@H](C)O)C(C)O)C(C)C)C(=O)NC(CC(=O)N[C@@H](CC(N)=O)C(=O)O)CC(C)C (stereo partly drawn) |
| 619000 | 344 | CC[C@H](C)[C@H](NC(=O)[C@H](C)NC(=O)[C@H](CC(N)=O)NC(=O)CC(CC(C)C)NC(=O)[C@H](Cc1ccc(O)cc1)NC(=O)[C@H](CCCCN)NC(=O)[C@H](CCCCN)NC(=O)CC(NC(=O)[C@H](C)NC(=O)[C@H](CC(C)C)NC(=O)[C@H](CCC(N)=O)NC(=O)CC(CCCCN)NC(=O)[C@H](CCCNC(=N)N)NC(=O)[C@H](CC(C)C)NC(=O)[C@H](CCCNC(=N)N)NC(=O)CC(NC(=O)[C@H](Cc1ccc(O)cc1)NC(=O)[C@H](CC(N)=O)NC(=O)[C@H](CC(=O)O)NC(=O)[C@@H](NC(=O)[C@H](Cc1ccccc1)NC(=O)[C@@H](NC(=O)[C@H](C)NC(=O)[C@H](CC(=O)O)NC(=O)[C@@H](Cc1ccccc1)NC(=O)[C@@H](N)Cc1cnc[nH]1)C(C)C)[C@@H](C)O)C(C)O)C(C)C)C(=O)NC(CC(=O)N[C@@H](CC(N)=O)C(=O)O)CC(C)C (stereo partly drawn) |
| 71.2 | 50.3 | CC[C@H](C)[C@H](NC(=O)[C@H](C)NC(=O)[C@H](CC(N)=O)NC(=O)CC(CC(C)C)NC(=O)[C@H](Cc1ccc(O)cc1)NC(=O)[C@H](CCCCN)NC(=O)[C@H](CCCCN)NC(=O)CC(NC(=O)[C@H](C)NC(=O)[C@H](CC(C)C)NC(=O)[C@H](CCC(N)=O)NC(=O)CC(CCCCN)NC(=O)[C@H](CCCNC(=N)N)NC(=O)[C@H](CC(C)C)NC(=O)[C@H](CCCNC(=N)N)NC(=O)CC(NC(=O)[C@H](Cc1ccc(O)cc1)NC(=O)[C@H](CC(N)=O)NC(=O)[C@H](CC(=O)O)NC(=O)[C@@H](NC(=O)[C@H](Cc1ccccc1)NC(=O)CC(NC(=O)[C@H](C)NC(=O)[C@H](CC(=O)O)NC(=O)[C@@H](Cc1ccccc1)NC(=O)[C@@H](N)Cc1cnc[nH]1)C(C)C)[C@@H](C)O)C(C)O)C(C)C)C(=O)NC(CC(=O)N[C@@H](CC(N)=O)C(=O)O)CC(C)C (stereo partly drawn) |
| 89.3 | > 1000 | CC[C@H](C)[C@H](NC(=O)[C@H](C)NC(=O)[C@H](CC(N)=O)NC(=O)CC(CC(C)C)NC(=O)[C@H](Cc1ccc(O)cc1)NC(=O)[C@H](CCCCN)NC(=O)[C@H](CCCCN)NC(=O)CC(NC(=O)[C@H](C)NC(=O)[C@H](CC(C)C)NC(=O)[C@H](CCC(N)=O)NC(=O)CC(CCCCN)NC(=O)[C@H](CCCNC(=N)N)NC(=O)[C@H](CC(C)C)NC(=O)[C@H](CCCNC(=N)N)NC(=O)CC(NC(=O)[C@H](Cc1ccc(O)cc1)NC(=O)[C@H](CC(N)=O)NC(=O)[C@H](CC(=O)O)NC(=O)[C@@H](NC(=O)[C@H](Cc1ccccc1)NC(=O)[C@H]1CCC[C@@H]1NC(=O)[C@H](C)NC(=O)[C@H](CC(=O)O)NC(=O)[C@@H](Cc1ccccc1)NC(=O)[C@@H](N)Cc1cnc[nH]1)[C@@H](C)O)C(C)O)C(C)C)C(=O)NC(CC(=O)N[C@@H](CC(N)=O)C(=O)O)CC(C)C (stereo partly drawn) |
| 0.195 | 0.0785 | CC[C@H](C)[C@H](NC(=O)[C@H](CO)NC(=O)[C@H]1CCC[C@@H]1NC(=O)[C@H](CC(C)C)NC(=O)[C@H](Cc1ccc(O)cc1)NC(=O)[C@H]1CNC[C@@H]1NC(=O)[C@H](CCCCN)NC(=O)[C@H](C)NC(=O)[C@H](C)NC(=O)[C@H]1CCC[C@@H]1NC(=O)[C@H](CCC(N)=O)NC(=O)[C@H](CCCCN)NC(=O)[C@H](CCCNC(=N)N)NC(=O)[C@H](CC(C)C)NC(=O)[C@H](CCCNC(=N)N)NC(=O)[C@@H](NC(=O)[C@H](Cc1ccc(O)cc1)NC(=O)[C@H](CC(N)=O)NC(=O)[C@H](CC(=O)O)NC(=O)[C@@H](NC(=O)[C@H](Cc1ccccc1)NC(=O)[C@@H](NC(=O)[C@H](C)NC(=O)[C@H](CC(=O)O)NC(=O)[C@H](CO)NC(=O)[C@H](Cc1cnc[nH]1)NC(C)=O)C(C)C)[C@@H](C)O)[C@@H](C)O)C(=O)N[C@@H](CCCCN)C(=O)NC(CC(N)=O)CC(=O)N[C@@H](CCCCN)C(=O)N[C@@H](CCCNC(=N)N)C(=O)N[C@@H](Cc1ccc(O)cc1)C(=O)O (stereo partly drawn) (Ac-HSDAVFTDNYTRLRKQ[X1]AAK[X2]YL[X1]SIK[ξβ3hN]KRY-OH) |
| > 1000 | 0.963 | CC(=O)N[C@@H](Cc1cnc[nH]1)C(=O)N[C@@H](CO)C(=O)N[C@@H](CC(=O)O)C(=O)N[C@@H](C)C(=O)N[C@H](C(=O)N[C@@H](Cc1ccccc1)C(=O)N[C@H](C(=O)N[C@@H](CCC(=O)O)C(=O)N[C@@H](CC(N)=O)C(=O)N[C@@H](Cc1ccc(O)cc1)C(=O)N[C@H](C(=O)N[C@@H](CCCCN)C(=O)N[C@@H](CC(C)C)C(=O)N[C@@H](CCCNC(=N)N)C(=O)N[C@@H](CCCCN)C(=O)N[C@@H](CCC(N)=O)C(=O)N[C@@H](CC(C)C)C(=O)N[C@@H](C)C(=O)N[C@@H](C)C(=O)N[C@H]1CNC[C@@H]1C(=O)N[C@@H](CCCCN)C(=O)N[C@@H](Cc1ccc(O)cc1)C(=O)N[C@H]1CCC[C@@H]1C(=O)N[C@@H](CC(N)=O)C(=O)N[C@@H](CC(=O)O)C(=O)N[C@@H](CC(C)C)C(=O)NC(CCCCN)CC(=O)N[C@@H](CCCCN)C(=O)NCC(=O)NCCC(=O)N[C@H](C(=O)O)[C@@H](C)O)[C@@H](C)O)[C@@H](C)O)C(C)C (stereo partly drawn) (Ac-HSDAVFTENYTKLRKQLAA[X2]KY[X1]NDL[ξβ3hK]KG[βAla]T-OH) |
| 9.09 | 104 | CC(=O)N[C@@H](Cc1cnc[nH]1)C(=O)N[C@@H](CO)C(=O)N[C@@H](CC(=O)O)C(=O)N[C@@H](C)C(=O)N[C@H](C(=O)N[C@@H](Cc1ccccc1)C(=O)N[C@H](C(=O)N[C@@H](CCC(=O)O)C(=O)N[C@@H](CC(N)=O)C(=O)N[C@@H](Cc1ccc(O)cc1)C(=O)N[C@H](C(=O)N[C@@H](CCCCN)C(=O)N[C@@H](CC(C)C)C(=O)N[C@@H](CCCNC(=N)N)C(=O)N[C@@H](CCCCN)C(=O)N[C@@H](CCC(N)=O)C(=O)N[C@@H](CC(C)C)C(=O)N[C@@H](C)C(=O)N[C@H]1CCC[C@@H]1C(=O)N[C@@H](CCCCN)C(=O)N[C@@H](CCCCN)C(=O)N[C@@H](Cc1ccc(O)cc1)C(=O)N[C@H]1CCC[C@@H]1C(=O)N[C@@H](CC(N)=O)C(=O)N[C@@H](CC(=O)O)C(=O)NC(CC(=O)N[C@@H](CCCCN)C(=O)N[C@@H](CCCCN)C(=O)NCC(=O)NCCC(=O)N[C@H](C(=O)O)[C@@H](C)O)CC(C)C)[C@@H](C)O)[C@@H](C)O)C(C)C (stereo partly drawn) (Ac-HSDAVFTENYTKLRKQLA[X1]KKY[X1]ND[ξβ3hL]KKG[βAla]T-OH) |
| 9.52 | 0.422 | CC(=O)N[C@@H](Cc1cnc[nH]1)C(=O)N[C@@H](CO)C(=O)N[C@@H](CC(=O)O)C(=O)N[C@@H](C)C(=O)N[C@H](C(=O)N[C@@H](Cc1ccccc1)C(=O)N[C@H](C(=O)N[C@@H](CCC(=O)O)C(=O)N[C@@H](CC(N)=O)C(=O)N[C@@H](Cc1ccc(O)cc1)C(=O)N[C@H](C(=O)N[C@@H](CCCCN)C(=O)N[C@@H](CC(C)C)C(=O)N[C@@H](CCCNC(=N)N)C(=O)N[C@@H](CCCCN)C(=O)N[C@@H](CCC(N)=O)C(=O)N[C@H]1CCC[C@@H]1C(=O)N[C@@H](C)C(=O)N[C@@H](C)C(=O)N[C@@H](CCCCN)C(=O)N[C@H]1CNC[C@@H]1C(=O)N[C@@H](Cc1ccc(O)cc1)C(=O)N[C@@H](CC(C)C)C(=O)N[C@H]1CCC[C@@H]1C(=O)N[C@@H](CC(=O)O)C(=O)N[C@@H](CC(C)C)C(=O)N[C@@H](CCCCN)C(=O)NC(CCCCN)CC(=O)NCC(=O)NCC(=O)N[C@H](C(=O)O)[C@@H](C)O)[C@@H](C)O)[C@@H](C)O)C(C)C (stereo partly drawn) (Ac-HSDAVFTENYTKLRKQ[X1]AAK[X2]YL[X1]DLK[ξβ3hK]GGT-OH) |
